Data as given in US9936701B2, “Herbicidal compounds” (Syngenta Participations AG, priority 2013, dated 2018).

Columns and labels:
[1] = tested on: a variety of test species; experiment: Pre-emergence herbicidal activity (glasshouse, sprayed one day after sowing, evaluated after 13 days); type: in vivo; set-up: key: 5=total damage to plant; 0=no damage to plant; conditions: application pre-emergence, rate 1000 g/Ha, scale 0-5
How it was run: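 Sow in pots of standard soil; after one day under glasshouse conditions, spray compound (acetone/water 50:50 formulation, 0.5% Tween 20, diluted in water). Grow on at 24/16 °C, 14 h light, 65% humidity with twice-daily watering. Assess at 13 days, 0–5 damage scale.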

[2] = tested on: a variety of test species; experiment: Post-emergence herbicidal activity (glasshouse, sprayed after 8 days cultivation, evaluated after 13 days); type: in vivo; set-up: key: 5=total damage to plant; 0=no damage to plant; conditions: rate 1000 g/Ha, scale 0-5
How it was run: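 Damage was rated 0-5 (5 = total) 13 days after a post-emergence spray of acetone/water (50:50) plus 0.5% Tween 20 formulation. Plants were sprayed at 8 days' growth and kept at 24/16° C, 14 h light, 65% humidity, watered twice daily.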

Row | SMILES | Pre-emergence herbicidal damage score, ABUTH [1] | Pre-emergence herbicidal damage score, ALOMY [1] | Pre-emergence herbicidal damage score, AMARE [1] | Pre-emergence herbicidal damage score, ECHCG [1] | Pre-emergence herbicidal damage score, SETFA [1] | Pre-emergence herbicidal damage score, ZEAMX [1] | ABUTH (Abutilon theophrasti) damage score, application post-emergence [2] | ALOMY (Alopecurus myosuroides) damage score, application post-emergence [2] | AMARE (Amaranthus retroflexus) damage score, application post-emergence [2] | ECHCG (Echinochloa crus-galli) damage score, application post-emergence [2] | SETFA (Setaria faberi) damage score, application post-emergence [2] | ZEAMX (Zea mays) damage score, application post-emergence [2] | melting point [°C]
1 | C=CC(C)(C)c1cc(N2C(=O)C(Cl)=C(C)C2O)no1 (centres unmarked) [A41] | 5 | 4 | 5 | 4 | 5 | 3 | 5 | 5 | 5 | 5 | 5 | 4 | 114 to 116
2 | CC1=C(Cl)C(=O)N(c2cc(C(C)(C)C#N)on2)C1O (centres unmarked) [A42] | 5 | 4 | 5 | 4 | 5 | 2 | 5 | 5 | 5 | 5 | 5 | 4 | 145 to 147
3 | CCC(C)(CC)c1cc(N2C(=O)C(Cl)=C(C)C2O)no1 (centres unmarked) [A43] | 4 | 4 | 5 | 4 | 5 | 2 | 5 | 5 | 5 | 5 | 5 | 2 | 104 to 106
4 | CC1=C(Cl)C(=O)N(c2noc(C(C)C)c2C#N)C1O (centres unmarked) [A44, 3-(4-chloro-2-hydroxy-3-methyl-5-oxo-2H-pyrrol-1-yl)-5-isopropyl-isoxazole-4-carbonitrile] | 5 | 4 | 5 | 4 | 5 | 3 | 5 | 5 | 5 | 5 | 5 | 4 | 117 to 119
5 | CCC(C)(CC)c1onc(N2C(=O)C(Cl)=C(C)C2O)c1C#N (centres unmarked) [A45] | 4 | 3 | 5 | 3 | 4 | 2 | 5 | 5 | 5 | 5 | 5 | 3 | 129 to 130
6 | CCCC(C)(C)c1onc(N2C(=O)C(Cl)=C(C)C2O)c1C#N (centres unmarked) [A46] | 2 | 4 | 5 | 4 | 4 | 3 | 5 | 5 | 5 | 5 | 5 | 3 | 113 to 115
7 | CCCCC(C)(C)c1onc(N2C(=O)C(Cl)=C(C)C2O)c1C#N (centres unmarked) [A47] | 0 | 2 | 5 | 2 | 1 | 2 | 5 | 5 | 5 | 5 | 5 | 2 | 99 to 101
8 | CCC(C)c1onc(N2C(=O)C(Cl)=C(C)C2O)c1C#N (centres unmarked) [A49] | 5 | 3 | 5 | 4 | 5 | 1 | 5 | 4 | 5 | 5 | 5 | 2 | 107 to 109
